According to the CheMixHub viscosity set:
± gives the uncertainty stated by the source.

Test: xn = mol fraction of the nth substance listed

COC(=O)OC + CO
Conditions	viscosity [mPa·s]
293.15 K, 101 kPa, x1 = 0.0381	0.5792 ± 0.0052
293.15 K, 101 kPa, x1 = 0.0818	0.5612 ± 0.0051
293.15 K, 101 kPa, x1 = 0.1346	0.5507 ± 0.005
293.15 K, 101 kPa, x1 = 0.1927	0.5478 ± 0.005
293.15 K, 101 kPa, x1 = 0.2626	0.5418 ± 0.0049
293.15 K, 101 kPa, x1 = 0.348	0.536 ± 0.0048
293.15 K, 101 kPa, x1 = 0.4533	0.5379 ± 0.0048
293.15 K, 101 kPa, x1 = 0.5871	0.548 ± 0.0049
293.15 K, 101 kPa, x1 = 0.7618	0.564 ± 0.005
293.15 K, 101.3 kPa, x1 = 0.0537	0.567 ± 0.031
293.15 K, 101.3 kPa, x1 = 0.0996	0.551 ± 0.03
293.15 K, 101.3 kPa, x1 = 0.2058	0.536 ± 0.029
293.15 K, 101.3 kPa, x1 = 0.3135	0.533 ± 0.029
293.15 K, 101.3 kPa, x1 = 0.41	0.535 ± 0.029
293.15 K, 101.3 kPa, x1 = 0.5086	0.54 ± 0.03
293.15 K, 101.3 kPa, x1 = 0.6104	0.545 ± 0.03
293.15 K, 101.3 kPa, x1 = 0.7229	0.554 ± 0.03
293.15 K, 101.3 kPa, x1 = 0.8338	0.57 ± 0.031
293.15 K, 101.3 kPa, x1 = 0.9067	0.586 ± 0.032
293.15 K, 101.3 kPa, x1 = 0.9509	0.6 ± 0.032
298.15 K, 101 kPa, x1 = 0.0381	0.5373 ± 0.0049
298.15 K, 101 kPa, x1 = 0.0818	0.5292 ± 0.0049
298.15 K, 101 kPa, x1 = 0.1346	0.5164 ± 0.0047
298.15 K, 101 kPa, x1 = 0.1927	0.5119 ± 0.0047
298.15 K, 101 kPa, x1 = 0.2626	0.5061 ± 0.0046
298.15 K, 101 kPa, x1 = 0.348	0.503 ± 0.0046
298.15 K, 101 kPa, x1 = 0.4533	0.5058 ± 0.0046
298.15 K, 101 kPa, x1 = 0.5871	0.5227 ± 0.0047
298.15 K, 101 kPa, x1 = 0.7618	0.5374 ± 0.0048
298.15 K, 101.3 kPa, x1 = 0.0506	0.531 ± 0.029
298.15 K, 101.3 kPa, x1 = 0.1042	0.518 ± 0.029
298.15 K, 101.3 kPa, x1 = 0.2079	0.502 ± 0.028
298.15 K, 101.3 kPa, x1 = 0.3011	0.498 ± 0.028
298.15 K, 101.3 kPa, x1 = 0.3963	0.498 ± 0.028
298.15 K, 101.3 kPa, x1 = 0.4931	0.504 ± 0.028
298.15 K, 101.3 kPa, x1 = 0.589	0.509 ± 0.028
298.15 K, 101.3 kPa, x1 = 0.6927	0.517 ± 0.029
298.15 K, 101.3 kPa, x1 = 0.8137	0.53 ± 0.029
298.15 K, 101.3 kPa, x1 = 0.8997	0.548 ± 0.03
298.15 K, 101.3 kPa, x1 = 0.9575	0.566 ± 0.031
298.15 K, 101.33 kPa, x1 = 0.0989	0.482 ± 0.014
298.15 K, 101.33 kPa, x1 = 0.2009	0.462 ± 0.013
298.15 K, 101.33 kPa, x1 = 0.3008	0.458 ± 0.013
298.15 K, 101.33 kPa, x1 = 0.4008	0.457 ± 0.013
298.15 K, 101.33 kPa, x1 = 0.5	0.462 ± 0.013
298.15 K, 101.33 kPa, x1 = 0.6002	0.468 ± 0.014
298.15 K, 101.33 kPa, x1 = 0.7016	0.474 ± 0.014
298.15 K, 101.33 kPa, x1 = 0.8015	0.496 ± 0.015
298.15 K, 101.33 kPa, x1 = 0.9028	0.511 ± 0.015
303.15 K, 101 kPa, x1 = 0.0381	0.5011 ± 0.0047
303.15 K, 101 kPa, x1 = 0.0818	0.4896 ± 0.0046
303.15 K, 101 kPa, x1 = 0.1346	0.4814 ± 0.0045
303.15 K, 101 kPa, x1 = 0.1927	0.479 ± 0.0045
303.15 K, 101 kPa, x1 = 0.2626	0.4723 ± 0.0044
303.15 K, 101 kPa, x1 = 0.348	0.474 ± 0.0044
303.15 K, 101 kPa, x1 = 0.4533	0.473 ± 0.0044
303.15 K, 101 kPa, x1 = 0.5871	0.4884 ± 0.0045
303.15 K, 101 kPa, x1 = 0.7618	0.5087 ± 0.0046
303.15 K, 101.3 kPa, x1 = 0.026	0.503 ± 0.028
303.15 K, 101.3 kPa, x1 = 0.0707	0.489 ± 0.027
303.15 K, 101.3 kPa, x1 = 0.1832	0.469 ± 0.027
303.15 K, 101.3 kPa, x1 = 0.2839	0.467 ± 0.026
303.15 K, 101.3 kPa, x1 = 0.3823	0.468 ± 0.026
303.15 K, 101.3 kPa, x1 = 0.4869	0.472 ± 0.027
303.15 K, 101.3 kPa, x1 = 0.5847	0.475 ± 0.027
303.15 K, 101.33 kPa, x1 = 0.0989	0.443 ± 0.013
303.15 K, 101.33 kPa, x1 = 0.2009	0.432 ± 0.013
303.15 K, 101.33 kPa, x1 = 0.3008	0.427 ± 0.013
303.15 K, 101.33 kPa, x1 = 0.4008	0.429 ± 0.013
303.15 K, 101.33 kPa, x1 = 0.6002	0.439 ± 0.013
303.15 K, 101.33 kPa, x1 = 0.7016	0.447 ± 0.013
303.15 K, 101.33 kPa, x1 = 0.8015	0.459 ± 0.014
303.15 K, 101.33 kPa, x1 = 0.9028	0.48 ± 0.014
308.15 K, 101.33 kPa, x1 = 0.0989	0.415 ± 0.012
308.15 K, 101.33 kPa, x1 = 0.2009	0.406 ± 0.012
308.15 K, 101.33 kPa, x1 = 0.3008	0.404 ± 0.012
308.15 K, 101.33 kPa, x1 = 0.4008	0.403 ± 0.012
308.15 K, 101.33 kPa, x1 = 0.5	0.406 ± 0.012
308.15 K, 101.33 kPa, x1 = 0.6002	0.421 ± 0.013
308.15 K, 101.33 kPa, x1 = 0.7016	0.419 ± 0.013
308.15 K, 101.33 kPa, x1 = 0.8015	0.433 ± 0.013
308.15 K, 101.33 kPa, x1 = 0.9028	0.456 ± 0.014
313.15 K, 101 kPa, x1 = 0.0381	0.4382 ± 0.0042
313.15 K, 101 kPa, x1 = 0.0818	0.4297 ± 0.0041
313.15 K, 101 kPa, x1 = 0.1346	0.4193 ± 0.004
313.15 K, 101 kPa, x1 = 0.1927	0.4192 ± 0.004
313.15 K, 101 kPa, x1 = 0.2626	0.4166 ± 0.004
313.15 K, 101 kPa, x1 = 0.348	0.4177 ± 0.004
313.15 K, 101 kPa, x1 = 0.4533	0.4181 ± 0.004
313.15 K, 101 kPa, x1 = 0.5871	0.4314 ± 0.0041
313.15 K, 101 kPa, x1 = 0.7618	0.4469 ± 0.0041
323.15 K, 101 kPa, x1 = 0.0381	0.3851 ± 0.0038
323.15 K, 101 kPa, x1 = 0.0818	0.3724 ± 0.0037
323.15 K, 101 kPa, x1 = 0.1346	0.3704 ± 0.0037
323.15 K, 101 kPa, x1 = 0.1927	0.3692 ± 0.0037
323.15 K, 101 kPa, x1 = 0.2626	0.3685 ± 0.0036
323.15 K, 101 kPa, x1 = 0.348	0.3693 ± 0.0036
323.15 K, 101 kPa, x1 = 0.4533	0.3745 ± 0.0037
323.15 K, 101 kPa, x1 = 0.5871	0.3867 ± 0.0037
323.15 K, 101 kPa, x1 = 0.7618	0.3997 ± 0.0038
